Source: US20250281424A1 (New York Blood Center, Inc, priority 2020, published 2025)

Target: T1, human PF4 (Homo sapiens, UniProt P02776)
T1 construct: PF4 is a 70 amino acid, lysine-rich 7.8 kDa platelet-specific protein; made in house; host or cells: Escherichia coli BL21DE3 pLysS (pT7-7) and/or Drosophila S2 cells
T1 sequence (P02776 32-101): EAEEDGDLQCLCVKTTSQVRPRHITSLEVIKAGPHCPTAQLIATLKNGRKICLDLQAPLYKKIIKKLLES
Assay: Inhibition of PF4 tetramer formation (BS3 cross-linking, SDS-PAGE)
Assay type: biochemical
Settings: for inhibition at 5 µM: 5 μM inhibitor; for inhibition at 5 µM / inhibition at 10 µM / inhibition at 1 µM / inhibition at 3 µM: read-out: % inhibition of PF4 tetramer formation at single concentration of inhibitor; for inhibition at 10 µM: 10 μM inhibitor (column A); for IC50: read-out: IC50 of PF4 tetramer formation inhibition; for inhibition at 1 µM: 1 μM inhibitor; for inhibition at 3 µM: 3 μM inhibitor (column A)
How it was run: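 Recombinant human wild-type PF4 (E. coli-expressed, heparin-purified), 10 μg/ml in PBS, incubated with compound 15 min at 37° C or 60 min at room temperature, then cross-linked with 0.2 mM BS3 for 30 min at room temperature. Reducing 12% SDS-PAGE; bands quantified as % tetramer, trimer, dimer, monomer versus compound-free control.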

Row | Structure (SMILES) | inhibition at 5 µM [%] | inhibition at 10 µM [%] | IC50 [nM] | inhibition at 1 µM [%] | inhibition at 3 µM [%]
1 | CO[C@@H]1O[C@H](C(=O)C2C(=O)c3ccc(S(=O)(=O)c4ccc5c(c4)C(=O)C(C(=O)[C@H]4O[C@@H](OC)[C@H]6OC(C)(C)O[C@@H]64)C5=O)cc3C2=O)[C@H]2OC(C)(C)O[C@H]12 (stereo partly drawn) [Example 220, 2-[(3aS,4S,6R,6aS)-6-methoxy-2,2-dimethyl-tetrahydro-2H-furo[3,4-d][1,3]dioxole-4-carbonyl]-5-({2-[(3aS,4S,6R,6aS)-6-methoxy-2,2-dimethyl-tetrahydro-2H-furo[3,4-d][1,3]dioxole-4-carbonyl]-1,3-dioxo-2,3-dihydro-1H-inden-5-yl}sulfonyl)-2,3-dihydro-1H-indene-1,3-dione] | 90 | 92 | 2500 | – | –
2 | CC[C@H](NC(=O)OCc1ccccc1)C(=O)C1C(=O)c2ccc(C(=O)c3ccc4c(c3)C(=O)C(C(=O)[C@H](CC)NC(=O)OCc3ccccc3)C4=O)cc2C1=O (stereo partly drawn) [Example 165, benzyl N—[(S)-1-(5-{2-[(2S)-2-{[(benzyloxy)carbonyl]amino}butanoyl]-1,3-dioxo-2,3-dihydro-1H-indene-5-carbonyl}-1,3-dioxo-2,3-dihydro-1H-inden-2-yl)-1-oxobutan-2-yl]carbamate] | 75 | 75 | 3300 | – | –
3 | O=C(NCCc1cccc(Cl)c1)C1C(=O)c2ccc(S(=O)(=O)c3ccc4c(c3)C(=O)C(C(=O)NCCc3cccc(Cl)c3)C4=O)cc2C1=O (stereo not drawn) [Example 84, N-[2-(3-chlorophenyl)ethyl]-5-[(2-{[2-(3-chlorophenyl)ethyl]carbamoyl}-1,3-dioxo-2,3-dihydro-1H-inden-5-yl)sulfonyl]-1,3-dioxo-2,3-dihydro-1H-indene-2-carboxamide] | – | – | 3000 | – | –
4 | COc1cc(CCNC(=O)C2C(=O)c3ccc(C(=O)c4ccc5c(c4)C(=O)C(C(=O)NCCc4cc(OC)cc(OC)c4)C5=O)cc3C2=O)cc(OC)c1 (stereo not drawn) [Example 100, N-[2-(3,5-dimethoxyphenyl)ethyl]-5-(2-{[2-(3,5-dimethoxyphenyl)ethyl]carbamoyl}-1,3-dioxo-2,3-dihydro-1H-indene-5-carbonyl)-1,3-dioxo-2,3-dihydro-1H-indene-2-carboxamide] | – | – | ~13000 | – | –
5 | CC[C@H](C)[C@H](NC(=O)C1C(=O)c2ccc(Oc3ccc4c(c3)C(=O)C(C(=O)N[C@H](C(=O)OC)[C@@H](C)CC)C4=O)cc2C1=O)C(=O)OC (stereo partly drawn) [Example 331, methyl (2S,3S)-2-({5-[(2-{[(2S,3S)-1-methoxy-3-methyl-1-oxopentan-2-yl]carbamoyl}-1,3-dioxo-2,3-dihydro-1H-inden-5-yl)oxy]-1,3-dioxo-2,3-dihydro-1H-inden-2-yl}formamido)-3-methylpentanoate] | – | – | – | 37 | 66
6 | CC(C)(C)OC(=O)N1CC[C@@H](C(=O)C2C(=O)c3ccc(C(=O)c4ccc5c(c4)C(=O)C(C(=O)[C@@H]4CCN(C(=O)OC(C)(C)C)C4)C5=O)cc3C2=O)C1 (stereo partly drawn) [Example 123, tert-butyl (3R)-3-(5-{2-[(3R)-1-[(tert-butoxy)carbonyl]pyrrolidine-3-carbonyl]-1,3-dioxo-2,3-dihydro-1H-indene-5-carbonyl}-1,3-dioxo-2,3-dihydro-1H-indene-2-carbonyl)pyrrolidine-1-carboxylate] | 88 | 89 | 1600 | – | –
7 | CC[C@H](C)[C@H](NC(=O)C1C(=O)c2ccc(C(=O)c3ccc4c(c3)C(=O)C(C(=O)N[C@H](C(=O)OC)[C@@H](C)CC)C4=O)cc2C1=O)C(=O)OC (stereo partly drawn) [Example 332, methyl (2S,3S)-2-{[5-(2-{[(2S,3S)-1-methoxy-3-methyl-1-oxopentan-2-yl]carbamoyl}-1,3-dioxo-2,3-dihydro-1H-indene-5-carbonyl)-1,3-dioxo-2,3-dihydro-1H-inden-2-yl]formamido}-3-methylpentanoate] | – | – | – | 5 | 13
8 | CC(C)(C)OC(=O)NCCC(=O)C1C(=O)c2ccc(S(=O)(=O)c3ccc4c(c3)C(=O)C(C(=O)CCNC(=O)OC(C)(C)C)C4=O)cc2C1=O (stereo not drawn) [Example 164, tert-butyl N-[3-(5-{[2-(3-{[(tert-butoxy)carbonyl]amino}propanoyl)-1,3-dioxo-2,3-dihydro-1H-inden-5-yl]sulfonyl}-1,3-dioxo-2,3-dihydro-1H-inden-2-yl)-3-oxopropyl]carbamate] | 70 | 82 | 5000 | – | –
9 | O=C(c1ccc2c(c1)C(=O)C(C(=O)Nc1ccc(Cl)cc1Cl)C2=O)c1ccc2c(c1)C(=O)C(C(=O)Nc1ccc(Cl)cc1Cl)C2=O (stereo not drawn) [Example 80, N-(2,4-dichlorophenyl)-5-{2-[(2,4-dichlorophenyl)carbamoyl]-1,3-dioxo-2,3-dihydro-1H-indene-5-carbonyl}-1,3-dioxo-2,3-dihydro-1H-indene-2-carboxamide] | 90 | 90 | – | – | –

Now from value to compound:

Row | inhibition at 5 µM [%] | inhibition at 10 µM [%] | IC50 [nM] | inhibition at 1 µM [%] | inhibition at 3 µM [%] | Structure (SMILES)
10 | – | – | 1350 | 13 | 74 | CS(=O)(=O)N1CCC(NC(=O)C2C(=O)c3ccc(S(=O)(=O)c4ccc5c(c4)C(=O)C(C(=O)NC4CCN(S(C)(=O)=O)CC4)C5=O)cc3C2=O)CC1 (stereo not drawn) [Example 364, N-(1-methanesulfonylpiperidin-4-yl)-5-({2-[(1-methanesulfonylpiperidin-4-yl)carbamoyl]-1,3-dioxo-2,3-dihydro-1H-inden-5-yl}sulfonyl)-1,3-dioxo-2,3-dihydro-1H-indene-2-carboxamide]
11 | – | – | – | 24 | 46 | O=C(NCC1CCS(=O)(=O)C1)C1C(=O)c2ccc(S(=O)(=O)c3ccc4c(c3)C(=O)C(C(=O)NCC3CCS(=O)(=O)C3)C4=O)cc2C1=O (stereo not drawn) [Example 358, N-[(1,1-dioxo-1λ^6-thiolan-3-yl)methyl]-5-[(2-{[(1,1-dioxo-1λ^6-thiolan-3-yl)methyl]carbamoyl}-1,3-dioxo-2,3-dihydro-1H-inden-5-yl)sulfonyl]-1,3-dioxo-2,3-dihydro-1H-indene-2-carboxamide]
12 | 43 | 52 | – | – | – | O=C(c1ccc2c(c1)C(=O)C(C(=O)NC1CCOCC1)C2=O)c1ccc2c(c1)C(=O)C(C(=O)NC1CCOCC1)C2=O (stereo not drawn) [Example 72, 5,5′-carbonylbis(1,3-dioxo-n-(tetrahydro-2h-pyran-4-yl)-2,3-dihydro-1h-indene-2-carboxamide)]
13 | – | – | – | 1 | 21 | CS(=O)(=O)N1CCC(NC(=O)C2C(=O)c3ccc(Oc4ccc5c(c4)C(=O)C(C(=O)NC4CCN(S(C)(=O)=O)CC4)C5=O)cc3C2=O)CC1 (stereo not drawn) [Example 369, N-(1-methanesulfonylpiperidin-4-yl)-5-({2-[(1-methanesulfonylpiperidin-4-yl)carbamoyl]-1,3-dioxo-2,3-dihydro-1H-inden-5-yl}oxy)-1,3-dioxo-2,3-dihydro-1H-indene-2-carboxamide]
14 | – | – | 2500 | – | – | O=C(Nc1ccc(Cl)cc1)C1C(=O)c2ccc(S(=O)(=O)c3ccc4c(c3)C(=O)C(C(=O)Nc3ccc(Cl)cc3)C4=O)cc2C1=O (stereo not drawn) [Example 87, N-(4-chlorophenyl)-5-({2-[(4-chlorophenyl)carbamoyl]-1,3-dioxo-2,3-dihydro-1H-inden-5-yl}sulfonyl)-1,3-dioxo-2,3-dihydro-1H-indene-2-carboxamide]
